Assay results reported in patent US20100099642A1, “TGF-BETA STIMULANT AND FURTHER AGENT TO REDUCE SIDE EFFECTS” (TCP Innovations Limited, priority 2007, published 2010).
Marks after values point to notes of the source that are not given here.

Legend:
TGF-beta activity = TGF-beta activity estimated by smooth muscle cell proliferation (CPD with/without neutralising anti-TGF-beta antibody); format: cell-based, human; details: for TGF-beta activity: ratio of CPD in the absence vs presence of neutralising anti-TGF-beta antibody: 0 μM T, 72 hrs; for effect of lower doses on CPD and hence TGF-beta activity: doses below 10 μM Tamoxifen / below 100 μM aspirin
Experimental: The cells were cultured (37° C.; 5% CO2) in DMEM+20% foetal calf serum (FCS), and subcultured every 5 days at 1:2 dilution, using 0.02% trypsin/EDTA (Gibco).
For the experiments, the cells were subcultured into 12-well cluster plates at 1×10^5 cells/cm^2, and allowed to grow for 24 hrs. […] The cells were then incubated for either 24 hrs or 72 hrs depending on the experiment. All treatment conditions were established in triplicate.
Finally, TGF-beta activity was estimated by the direct effects on smooth muscle cell proliferation within the assay. For these experiments, the test agents were added, in triplicate, to cells both in the presence and absence of a neutralising antibody to TGF-beta (AB-100-NA; R&D Systems at 10 μg/ml, which is able to neutralise at least 25 ng/ml recombinant active TGF-beta1; R&D Systems). After 72 hrs incubation, the cells are washed and then released completely using 0.02% trypsin/EDTA (Gibco) at 37° C. for 10 mins, then counted manually using a haemocytometer. Importantly, the number of cells at 0 hrs must also be determined (using the same counting method, on a replicate set of three wells plated out specifically for the purpose). For each treatment condition, the TGF-beta-dependent inhibition of proliferation is expressed as the fold increase in the cumulative population doubling time in the absence of the neutralising antibody compared to the cumulative population doubling time in the presence of the neutralising antibody. […] Failure of either control led to the repeat of the experiment.

tgfb3 mRNA = tgfb3 mRNA level by quantitative PCR in human aortic vascular smooth muscle cells; format: cell-based; details: 24 hrs, normalised to TBP, vs vehicle
Experimental: (1995) Cardiovasc. Res. 29:848-55). […] The cells were then incubated for either 24 hrs or 72 hrs depending on the experiment. All treatment conditions were established in triplicate. The level of mRNA for tgfb1, tgfb2 and tgfb3 were estimated by quantitative PCR. The media was removed and RNA was carefully prepared using the Ambion RNAqueous4PCR kit (Ambion#1914) in accordance with the manufacturer's instructions. The purity of the RNA and the quantity was assessed spectrophotometrically. […] This analysis results in both a gel-like image as well as electrophoretic data. Indications of RNA degradation are: (a) decreasing ratio of ribosomal bands (b) additional peaks bellow the ribosomal bands (c) Decrease in overall RNA signal (d) shift towards shorter fragments. […] Next, the RNA was converted to cDNA using the ABI High-Capacity cDNA Archive Kit, in accordance with manufacturer's instructions. The qPCR assay was then set up as follow: all cDNA samples were diluted to 180 μl total volume using Molecular grade water. Samples were vortexed to ensure thorough mixing. cDNA was aliquoted into ABI 384 well plates using a multi-channel pipette, 4.5 μl of sample into each well. Samples were assayed in triplicate (that is, nine determinations in total were made for each condition, being three separate assays on each of three replicate culture wells). The assay mix and Universal Master Mix were prepared and aliquoted across the 384 well plates 5.5 μl in each well, using a single channel pipette. The final composition of each reaction (10 μl) being: Primer/Probe assay mix (×20)=0.5 μl; Universal Master Mix=5 μl; cDNA=4.5 μl. The plates were then heat sealed using Abgene clear seal strong plastic heat seals, and then cycled and scanned using the […] under the following conditions: 95° C. for 10 minutes to activate the AmpliTaq GOLD, then 40 cycles of: 95° C. for 15 Sec (Denaturation), 60° C. for 60 […]). […] Quantitative PCR was performed using several primer/probe sets. […] We used both commercially available primer/probe sets (ABI Taqman pre-validated assays), using both available sets in the ABI database for tgfb1 and tgfb2, as well as the single available set for tgfb3. In addition, we used our own manual design probe/primer set for each of tgfb1, tgfb2 and tgfb3. […] In all quantitative PCR experiments, several additional controls were included: firstly, a control for each sample is run with no reverse transcription to ensure the mRNA sample is not contaminated with genomic DNA (although the manual design probe/primer sets were all selected to cross an exon/exon boundary, ensuring no detectable amplicon is produced from genomic DNA templates). Secondly, a control reaction is run using serial 2-fold dilutions of a standard cDNA preparation (prepared from commercially available IMAGE clones). […] Failure of either control led to the repeat of the entire experiment.

[1] = tested on: anti-collagen type II antibodies; test: direct ELISA for anti-collagen type II antibodies in serum of collagen-induced arthritis mice; format: in vivo, mouse; details: day 39, TMX 1 mg/kg/day, aspirin 30 mg/kg/day
Experimental: (1980) Nature 283:666-8). Adult (12 week old) male DBA/1 mice were divided into groups of six animals. […] Foodpad thickness was determined each day using a digital caliper EC1507 (Moore & Wright) accurate to 0.01 mm. The thickness of each footpad was determined three times on each day by a single operator blind to the treatment condition of the mouse, and the footpad thickness of each mouse on each day was reported as the mean for the three measurements for all four paws. Errors represent the standard error of the mean among the six animals in each group. A direct ELISA for anti-collagen type II antibodies was used as an alternative assessment of the autoimmune response.

[2] = tested on: anti-carbohydrate antibodies; test: anti-carbohydrate antibody isotypes by direct ELISA in serum of men with coronary artery disease; format: in vivo, human; details: 3 months, Tamoxifen 20 mg once daily, aspirin 75 mg once daily, mean ± SD
Experimental: (§1) Patients continued with all other medications (statins, ACE inhibitors, beta blockers, calcium channel blockers, diuretics etc), but no patients were taking warfarin or tirofiban.
The level of anti-carbohydrate antibodies was measured by direct ELISA as previously described (Mosedale et al (2006) J. Immunol. Meth. 309:182-91). […] After a final 3 washes in PBS/Tween and single wash in PBS, 200 μl of K-blue chromogenic substrate was added to each well.
as §1
The level of anti-carbohydrate antibodies was then measured by direct ELISA using the procedure given in Example 5

Structure (SMILES) | TGF-beta activity: ratio of CPD in the absence vs presence of neutralising anti-TGF-beta antibody (TGF-beta activity; 10 μM A) | TGF-beta activity: ratio of CPD in the absence vs presence of neutralising anti-TGF-beta antibody (TGF-beta activity; 33 μM A) | TGF-beta activity: ratio of CPD in the absence vs presence of neutralising anti-TGF-beta antibody (TGF-beta activity; 100 μM A) | TGF-beta activity: ratio of CPD in the absence vs presence of neutralising anti-TGF-beta antibody (TGF-beta activity; 100 μM A, listed as A) | effect of lower doses on CPD and hence TGF-beta activity (TGF-beta activity) | Level of tgfb3 mRNA, estimated by qPCR (tgfb3 mRNA; 10 μM A) | Level of tgfb3 mRNA, estimated by qPCR (tgfb3 mRNA; 33 μM A) | Level of tgfb3 mRNA, estimated by qPCR (tgfb3 mRNA; 100 μM A) | Pan IgG against bovine collagen II, median concentration in serum [1] | IgG1 against bovine collagen II, median absorbance from the direct ELISA ([1]; neat serum) | IgG2a against bovine collagen II, median absorbance from the direct ELISA ([1]; neat serum) | IgG2b against bovine collagen II, median absorbance from the direct ELISA ([1]; neat serum) | IgG3 against bovine collagen II, median absorbance from the direct ELISA ([1]; neat serum) | IgG2 titre, change versus baseline [2] | IgG2 Absorbance, change versus baseline ([2]; neat serum) | Level of tgfb3 mRNA, estimated by qPCR (tgfb3 mRNA; 3.3 μM T) | Level of tgfb3 mRNA, estimated by qPCR (tgfb3 mRNA; 10 μM T) | Level of tgfb3 mRNA, estimated by qPCR (tgfb3 mRNA; 33 μM T)
CC(=O)Oc1ccccc1C(=O)O [Aspirin, acetylsalicylic acid] | 1.05 ± 0.09 fold | 1.13 ± 0.17 fold | 1.25 fold | 1.25 ± 0.06 fold | no statistically significant effect | 1.09 ± 0.08 fold-change | 1.06 ± 0.13 fold-change | 0.94 ± 0.09 fold-change | – | – | – | – | – | – | – | – | – | –
CC/C(=C(\c1ccccc1)c1ccc(OCCN(C)C)cc1)c1ccccc1 [Tamoxifen] | – | – | – | – | no statistically significant effect | – | – | – | 181 µg/mL | <0.05* | 0.081* | 0.482* | 0.069* | +176% ± 43% | +0.61 ± 0.17 | 0.92 ± 0.16 fold-change | 1.19 ± 0.21 fold-change | 1.31 ± 0.11 fold-change
